Data from US20160176867A1, “MODIFIED BET-PROTEIN-INHIBITING DIHYDROQUINOXALINONES AND DIHYDROPYRIDOPYRAZINONES” (BAYER PHARMA AKTIENGESELLSCHAFT, priority 2013, published 2016).

Experiments:
[1] = target: T1, BRD4 bromo domain 1 [BRD4(1)] (Homo sapiens, UniProt O60885); assay: BRD4/acetylated peptide H4 binding assay (TR-FRET), BRD4 bromo domain 1; details: inhibition of BRD4(1)/Ac-H4 peptide interaction
T1 construct: N-terminally His6-tagged BRD4(1) (amino acids 67-152); made in house; host or cells: E. coli
Procedure, shortened: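 TR-FRET (665/620 nm ratio) measuring displacement of biotinylated tetra-acetylated H4 peptide from His6-BRD4(1) (aa 67-152, E. coli; typically 10 nM) at pH 7.5. Compound (11 concentrations, 0.1 nM–20 μM, duplicates) was preincubated 10 min at 22°C, then 1 h at 22°C and ≥3 h at 4°C; IC50 from 4-parameter fit normalized to DMSO and no-BRD4 controls.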

B16F10 cells = assay: Cell proliferation assay (alamarBlue), B16F10; assay type: cell-based; details: Mus musculus, B16-F10; B16F10 (melanoma, BRAF wild-type), 96 hours
Method: In accordance with the invention, the ability of the substances to inhibit cell proliferation was determined. Cell viability was determined by means of the alamarBlue® reagent (Invitrogen) in a Victor X3 Multilabel Reader (Perkin Elmer). The excitation wavelength was 530 nm and the emission wavelength […].
The B16F10 cells (ATCC, CRL-6475) were sown at a concentration of 300-500 cells/well in 100 μl of growth medium (DMEM with phenol red, 10% FCS) on 96-well microtitre plates.
After overnight incubation at 37° C., the fluorescence values were determined (CI values). Then the plates were treated with various substance dilutions (1E-5 M, 3E-6 M, 1E-6 M, 3E-7 M, 1E-7 M, 3E-8 M, 1E-8 M) and incubated at 37° C. over 96 hours (MOLM-13, B16F10, CHL-1 cells) or 120 hours (MOLP-8 cells). Subsequently, the fluorescence values were determined (CO values). For the data analysis, the CI values were subtracted from the CO values and the results were compared between cells which had been treated with various dilutions of the substance or only with buffer solution. The IC50 values (substance concentration needed for 50% inhibition of cell proliferation) were calculated therefrom.

Compound | IC50 [1] | IC50 (B16F10 cells)
C[C@@H]1C(=O)N(C)c2ccc(Nc3cccc(S(=O)(=O)N4CC(F)(F)C4)c3)nc2N1C1CCN(C)CC1 [Example 29, (3R)-6-({3-[(3,3-Difluoroazetidin-1-yl)sulphonyl]phenyl}amino)-1,3-dimethyl-4-(1-methylpiperidin-4-yl)-3,4-dihydropyrido[2,3-b]pyrazin-2(1H)-one] | 29 nM | 230 nM
CC1C(=O)N(C)c2ccc(Nc3cccc(C(=O)NC4CCN(C)CC4)c3)nc2N1c1ccccc1 (racemic) [Example 104, 3-[(1,3-dimethyl-2-oxo-4-phenyl-1,2,3.4-tetrahydropyrido[2,3-b]pyrazin-6-yl)amino]-A-(1-methylpiperidin-4-yl)benzamide] | 956 nM | 2430 nM
COCCN1c2nc(Nc3cccc(S(=O)(=O)N4CCOCC4)c3)ccc2N(C)C(=O)C1C (racemic) [Example 49, 4-(2-methoxyethyl)-1,3-dimethyl-6-{[3-(morpholin-4-ylsulphonyl)phenyl]amino}-3,4-dihydropyrido[2,3-b]pyrazin-2(1H)-one] | 112 nM | 399 nM
C[C@@H]1C(=O)N(C)c2ccc(Nc3cccc(S(=O)(=O)NCCN(C)C)c3)nc2N1C1CCOCC1 [Example 21] | 48 nM | 626 nM
C[C@@H]1C(=O)N(C)c2ccc(Nc3cccc(C(=O)NC4CCN(C)CC4)c3)nc2N1C1CCOCC1 [Example 13, 3-{[(3R)-1,3-Dimethyl-2-oxo-4-(tetrahydro-2H-pyran-4-yl)-1,2,3,4-tetrahydropyrido[2,3-b]pyrazin-6-yl]amino}-N-(1-methylpiperidin-4-yl)benzamide] | 322 nM | 840 nM
C[C@@H]1C(=O)N(C)c2ccc(Nc3cccc(S(=O)(=O)N[C@H]4CC[C@H](N5CCN(CC6CC6)CC5)CC4)c3)nc2N1C1CCN(C(=O)OC(C)(C)C)CC1 [Example 52, tert-butyl 4-[(3R)-6-{[3-({trans-4-[4-(cyclo-propylmethyl)piperazin-1-yl]cyclohexyl}-sulphamoyl)phenyl]amino}-1,3-dimethyl-2-oxo-2,3-dihydropyrido[2,3-b]pyrazin-4(1H)-yl]piperidine-1-carboxylate] | 80 nM | 569 nM
C[C@@H]1C(=O)N(C)c2ccc(Nc3cccc(S(=O)(=O)N4CC5(CCC5)C4)c3)nc2N1C1CCNCC1 [Example 122, (3R)-6-{[3-(2-Azaspiro[3.3]hept-2-ylsulphonyl)phenyl]amino}-1,3-dimethyl-4-(piperidin-4-yl)-3,4-dihydropyrido[2,3-b]pyrazin-2(1H)-one] | 21 nM | 1840 nM
COCCN1c2nc(Nc3cccc(S(=O)(=O)N4CCN(C)CC4)c3)ccc2N(C)C(=O)C1C (racemic) [Example 53, 4-(2-methoxyethyl)-1,3-dimethyl-6-({3-[(4-methylpiperazin-1-yl)sulphonyl]phenyl}-amino)-3,4-dihydropyrido-[2,3-b]pyrazin-2(1H)-one] | 151 nM | 1300 nM
CC(C)N1c2nc(Nc3cccc(S(=O)(=O)N[C@H]4CC[C@H](N5CCN(CC6CC6)CC5)CC4)c3)ccc2N(C)C(=O)[C@H]1C [Example 34, N-{trans-4-[4-(cyclopropylmethyl)piperazin-1-yl]cyclohexyl}-3-{[(3R)-4-isopropyl-1,3-dimethyl-2-oxo-1,2,3,4-tetrahydropyrido[2,3-b]pyrazin-6-yl]amino}-benzenesulphonamide] | 23 nM | 202 nM
C[C@@H]1C(=O)N(C)c2ccc(Nc3cccc(C(=O)NC4CCN(C)CC4)c3)nc2N1Cc1ccccc1 [Example 73, 3-{[(3R)-4-benzyl-1,3-dimethyl-2-oxo-1,2,3,4-tetrahydropyrido[2,3-b]pyrazin-6-yl]amino}-N-(1-methylpiperidin-4-yl)benzamide] | 77 nM | 468 nM
C[C@@H]1C(=O)N(C)c2ccc(Nc3cccc(C(=O)N[C@H]4CC[C@H](N5CCN(CC6CC6)CC5)CC4)c3)nc2N1C1CCNCC1 [Example 131, N-{trans-4-[4-(cyclo-propylmethyl)piperazin-1-yl]cyclohexyl}-3-{[(3R)-1,3-dimethyl-2-oxo-4-(piperidin-4-yl)-1,2,3,4-tetrahydropyrido[2,3-b]pyrazin-6-yl]amino}benzamide] | 251 nM | > 20000 nM

More lines, in order of falling IC50 [1], values ahead:

IC50 [1] | IC50 (B16F10 cells) | Compound
382 nM | 1620 nM | CC(C)N1c2nc(Nc3cccc(C(=O)N4CCN(CC5CC5)CC4)c3)ccc2N(C)C(=O)[C@H]1C [Example 88, (3R)-6-[(3-{[4-(cyclo-propylmethyl)piperazin-1-yl]carbonyl}phenyl)amino]-4-isopropyl-1,3-dimethyl-3,4-dihydropyrido[2,3-b]pyrazin-2(1H)-one]
159 nM | 122 nM | COc1ccc(CN2c3cc(Nc4cccc(S(=O)(=O)N(C)C)c4)ccc3N(C)C(=O)[C@H]2C)cc1 [Example 10, 3-{[(3R)-4-(4-Methoxybenzyl)-1,3-dimethyl-2-oxo-1,2,3,4-tetrahydroquinoxalin-6-yl]amino}-N,N-dimethylbenzenesulphonamide]
112 nM | 312 nM | CC(C)N1c2nc(Nc3cccc(S(=O)(=O)NCCN(C)C)c3)ccc2N(C)C(=O)[C@H]1C [Example 55, N-[2-(dimethylamino)-ethyl]-3-{[(3R)-4-isopropyl-1,3-dimethyl-2-oxo-1,2,3,4-tetrahydro-pyrido[2,3-b]pyrazin-6-yl]amino}benzene-sulphonamide]
87 nM | 491 nM | C[C@@H]1C(=O)N(C)c2ccc(Nc3cccc(C(=O)NCCN4CCN(C)CC4)c3)nc2N1Cc1ccccc1 [Example 74, 3-{[(3R)-4-benzyl-1,3-dimethyl-2-oxo-1,2,3,4-tetrahydropyrido[2,3-b]pyrazin-6-yl]amino}-N-[2-(4-methylpiperazin-1-yl)ethyl]benzamide]
75 nM | 316 nM | COCCN1c2nc(Nc3cccc(S(=O)(=O)N4CCOCC4)c3)ccc2N(C)C(=O)[C@H]1C (stereo in doubt) [Example 111, (3R)-4-(2-methoxyethyl)-1,3-dimethyl-6-{[3-(morpholin-4-ylsulphonyl)phenyl]amino}-3,4-dihydropyrido[2,3-b]pyrazin-2(1H)-one]
62 nM | 396 nM | C[C@@H]1C(=O)N(C)c2ccc(Nc3cccc(C(=O)N[C@H]4CC[C@H](N5CCN(CC6CC6)CC5)CC4)c3)nc2N1Cc1ccccc1 [Example 72, 3-{[(3R)-4-benzyl-1,3-dimethyl-2-oxo-1,2,3,4-tetrahydropyrido[2,3-b]pyrazin-6-yl]amino}-N-{trans-4-[4-(cyclo-propylmethyl)piperazin-1-yl]cyclohexyl}benzamide]
58 nM | 556 nM | C[C@@H]1C(=O)N(C)c2ccc(Nc3cccc(S(=O)(=O)NC4CCN(C)CC4)c3)nc2N1C1CCOCC1 [Example 20, 3-{[(3R)-1,3-Dimethyl-2-oxo-4-(tetrahydro-2H-pyran-4-yl)-1,2,3,4-tetrahydropyrido[2,3-b]pyrazin-6-yl]amino}-N-(1-methylpiperidin-4-yl)benzenesulphonamide]
22 nM | 157 nM | C[C@@H]1C(=O)N(C)c2ccc(Nc3cccc(S(=O)(=O)NC4CCN(C)CC4)c3)nc2N1Cc1ccccc1 [Example 33, 3-{[(3R)-4-benzyl-1,3-dimethyl-2-oxo-1,2,3,4-tetrahydropyrido[2,3-b]pyrazin-6-yl]amino}-N-(1-methylpiperidin-4-yl)benzenesulphonamide]
18 nM | 2500 nM | C[C@@H]1C(=O)N(C)c2ccc(Nc3cccc(S(=O)(=O)N(C)C)c3)nc2N1C1CCNCC1 [Example 123, 3-{[(3R)-1,3-dimethyl-2-oxo-4-(piperidin-4-yl)-1,2,3,4-tetrahydropyrido[2,3-b]pyrazin-6-yl]amino}-N,N-dimethylbenzene-sulphonamide]
17 nM | 25 nM | C[C@@H]1C(=O)N(C)c2ccc(Nc3cccc(S(=O)(=O)NC4CC4)c3)nc2N1C1CCOCC1 [Example 26, N-Cyclopropyl-3-{[(3R)-1,3-dimethyl-2-oxo-4-(tetrahydro-2H-pyran-4-yl)-1,2,3,4-tetrahydropyrido[2,3-b]pyrazin-6-yl]amino}benzenesulphonamide]
16 nM | 43 nM | COc1ccc(S(=O)(=O)N2CCOCC2)cc1Nc1ccc2c(n1)N(C1CCN(C)CC1)[C@H](C)C(=O)N2C [Example 25, (3R)-6-{[2-Methoxy-5-(morpholin-4-ylsulphonyl)phenyl]amino}-1,3-dimethyl-4-(1-methylpiperidin-4-yl)-3,4-dihydropyrido[2,3-b]pyrazin-2(1H)-one]
15 nM | 44 nM | CCNS(=O)(=O)c1cccc(Nc2ccc3c(n2)N(C2CCOCC2)[C@H](C)C(=O)N3C)c1 [Example 23, 3-{[(3R)-1,3-dimethyl-2-oxo-4-(tetrahydro-2H-pyran-4-yl)-1,2,3,4-tetrahydropyrido[2,3-b]pyrazin-6-yl]amino}-N-ethylbenzenesulphonamide]
